# Data from US9670147B2, “Antioxidant inflammation modulators: oleanolic acid derivatives with amino and other modifications at C-17” (REATA PHARMACEUTICALS, INC., priority 2008, dated 2017).
# What was measured:
# RAW264.7 macrophages = assay: Cell viability, WST-1 reagent; type: cell-based, mouse; settings: Mus musculus, 2 h pre-treatment, then 20 ng/ml IFNγ for 24 hours
# Experimental: (§1) FIGS. 1-34. Inhibition of NO Production. RAW264.7 macrophages were pre-treated with DMSO or drugs at various concentrations (nM) for 2 hours, then treated with 20 ng/ml IFNγ for 24 hours. NO concentration in media was determined using the Griess reagent system; cell viability was determined using WST-1 reagent. FIGS. 49-52. Inhibition of NO Production. RAW264.7 macrophages were pre-treated with DMSO or drugs at various concentrations (nM) for 2 hours, then treated with 20 ng/ml IFNγ for 24 hours. NO concentration in media was determined using the Griess reagent system; cell viability was determined using WST-1 reagent. RAW264.7 macrophages were pre-treated with DMSO or drugs for 2 hours, then treated with recombinant mouse IFNγ (Sigma) for 24 hours. NO concentration in media was determined using the Griess reagent system (Promega). Cell viability was determined using WST-1 reagent (Roche).
# [1] = test system: IFNγ-induced NO production in RAW264.7 macrophages; assay: Suppression of IFNγ-induced NO production (Griess reagent); type: cell-based, mouse; settings: Mus musculus, 2 h pre-treatment, then 20 ng/ml IFNγ for 24 hours
# Experimental: as §1
SMILES,IC50 (RAW264.7 macrophages),IC50 [1]
"CN(C)[C@]12CCC(C)(C)C[C@H]1[C@H]1C(=O)C=C3[C@@]4(C)C=C(C#N)C(=O)C(C)(C)[C@@H]4CC[C@@]3(C)[C@]1(C)CC2 [Compound 63245, (4aR,6aS,6bR,8aS,12aS,12bR,14bS)-8a-(dimethylamino)-4,4,6a,6b,11,11,14b-heptamethyl-3,13-dioxo-3,4,4a,5,6,6a,6b,7,8,8a,9,10,11,12,12a,12b,13,14b-octadecahydropicene-2-carbonitrile]",> 200 nM,33 nM
"C=CCOC(=O)N[C@]12CCC(C)(C)C[C@H]1[C@H]1C(=O)C=C3[C@@]4(C)C=C(C#N)C(=O)C(C)(C)[C@@H]4CC[C@@]3(C)[C@]1(C)CC2 [Compound 63186, allyl-(4aS,6aR,6bS,8aR,12aS,14aR,14bS)-11-cyano-2,2,6a,6b,9,9,12a-heptamethyl-10,14-dioxo-1,2,3,4,4a,5,6,6a,6b,7,8,8a,9,10,12a,14,14a,14b-octadecahydropicen-4a-ylcarbamate]",100 nM,3 to 6 nM
"CC1(C)CC[C@]2(NC(=O)OCc3ccccc3)CC[C@]3(C)[C@H](C(=O)C=C4[C@@]5(C)C=C(C#N)C(=O)C(C)(C)[C@@H]5CC[C@]43C)[C@@H]2C1 [Compound 63174, benzyl-(4aS,6aR,6bS,8aR,12aS,14aR,14bS)-11-cyano-2,2,6a,6b,9,9,12a-heptamethyl-10,14-dioxo-1,2,3,4,4a,5,6,6a,6b,7,8,8a,9,10,12a,14,14a,14b-octadecahydropicen-4a-ylcarbamate]",80 nM,26 nM
"CC1(C)CC[C@]2(NC(=O)C3CC3)CC[C@]3(C)[C@H](C(=O)C[C@@H]4[C@@]5(C)C=C(C#N)C(=O)C(C)(C)[C@@H]5CC[C@]43C)[C@@H]2C1 [Compound 63236, N-((4aS,6aR,6bR,8aR,12aR,12bR,14aR,14bS)-11-cyano-2,2,6a,6b,9,9,12a-heptamethyl-10,14-dioxo-1,2,3,4,4a,5,6,6a,6b,7,8,8a,9,10,12a,12b,13,14,14a,14b-icosahydropicen-4a-yl)cyclopropanecarboxamide]",> 200 nM,~120 nM
"CC1(C)CC[C@]2(NCC#N)CC[C@]3(C)[C@H](C(=O)C[C@@H]4[C@@]5(C)C=C(C#N)C(=O)C(C)(C)[C@@H]5CC[C@]43C)[C@@H]2C1 [Compound 63222, (4aR,6aR,6bR,8aS,12aS,12bR,14aR,14bR)-8a-(cyanomethylamino)-4,4,6a,6b,11,11,14b-heptamethyl-3,13-dioxo-3,4,4a,5,6,6a,6b,7,8,8a,9,10,11,12,12a,12b,13,14,14a,14b-icosahydropicene-2-carbonitrile]",> 200 nM,~45 nM
"CC1(C)CC[C@]2(NC(=O)N3CCOCC3)CC[C@]3(C)[C@H](C(=O)C=C4[C@@]5(C)C=C(C#N)C(=O)C(C)(C)[C@@H]5CC[C@]43C)[C@@H]2C1 [Compound 63188, N-((4aS,6aR,6bS,8aR,12aS,14aR,14bS)-11-cyano-2,2,6a,6b,9,9,12a-heptamethyl-10,14-dioxo-1,2,3,4,4a,5,6,6a,6b,7,8,8a,9,10,12a,14,14a,14b-octadecahydropicen-4a-yl)morpholine-4-carboxamide]",> 200 nM,27 nM
"CC1(C)CC[C@]2(NC(=O)OC3CCOC3)CC[C@]3(C)[C@H](C(=O)C[C@@H]4[C@@]5(C)C=C(C#N)C(=O)C(C)(C)[C@@H]5CC[C@]43C)[C@@H]2C1 (stereo partly drawn) [Compound 63265, tetrahydrofuran-3-yl(4aS,6aR,6bR,8aR,12aR,12bR,14aR,14bS)-11-cyano-2,2,6a,6b,9,9,12a-heptamethyl-10,14-dioxo-1,2,3,4,4a,5,6,6a,6b,7,8,8a,9,10,12a,12b,13,14,14a,14b-icosahydropicen-4a-ylcarbamate]",> 200 nM,~100 nM
"CC1(C)CC[C@]2(NC(=O)Nc3ccc(O)cc3)CC[C@]3(C)[C@H](C(=O)C=C4[C@@]5(C)C=C(C#N)C(=O)C(C)(C)[C@@H]5CC[C@]43C)[C@@H]2C1 [Compound 63148, 1-((4aS,6aR,6bS,8aR,12aS,14aR,14bS)-11-cyano-2,2,6a,6b,9,9,12a-heptamethyl-10,14-dioxo-1,2,3,4,4a,5,6,6a,6b,7,8,8a,9,10,12a,14,14a,14b-octadecahydropicen-4a-yl)-3-(4-hydroxyphenyl)urea]",> 200 nM,~25 nM
